How the values were obtained:
PRL-1 = target: T1, PRL-1 (Homo sapiens, UniProt Q93096); assay: DiFMUP phosphatase activity assay for PRLs; format: biochemical; conditions: for IC50: 50 nM PRL-1, 30 min preincubation, 25°C, 24 μM DiFMUP, mean ± SEM (n = 3–5), read-out: IC50 (Ki) PRL-1
T1 construct: His-TEV (cleaved yes); made in house
T1 sequence (Q93096 1-173): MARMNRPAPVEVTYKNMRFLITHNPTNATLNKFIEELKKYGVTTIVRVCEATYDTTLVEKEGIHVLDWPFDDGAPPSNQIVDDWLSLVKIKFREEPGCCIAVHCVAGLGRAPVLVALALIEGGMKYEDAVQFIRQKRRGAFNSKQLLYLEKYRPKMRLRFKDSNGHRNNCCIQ
Experimental: Fig 2 Effect of polyphenolic compounds 8 (A), 9 (B), 10 (C) and 11 (D) on the phosphatase activity of PRL-1, PRL-2, PRL-3, PP1, and PP2A. Proteins were incubated for 30 min with 0–1000 μM of the corresponding procyandin 8–11. Phosphatase activity was measured in the presence of DiFMUP at 25°C using the concentration corresponding to the KM of each protein. The KM for PRLs was determined separately (PRL-3 = 21 μM, PRL-2 and PRL-1 = 24 μM). The KM for PP1 (91 μM) and for PP2A (100 μM) was taken from the literature. Protein concentrations are 50 nM for all PRLs and 2 mU for PP1 and 0.05 U for PP2A (see the Experimental Procedures). Phosphatase activity in the absence of inhibitors was set as 100%. Data represent means ± standard errors of the mean (n = 3–5).
DiFMUP assay for PRLs: In a final reaction volume of 100 μL the PRLs (50 nM final concentration) were incubated with decreasing concentrations of the inhibitory polyphenols for 30 minutes at 25°C. The buffer conditions were 108 mM TrisCl (pH 7.5), Triton 0.05% (v/v), DTT 27.0 mM, NaCl 811 mM. After the incubation time 20 μL DiFMUP (6,8-Difluoro-4-methylumbelliferyl phosphate) was added to reach a final concentration of 21 μM for PRL-3 and 24 μM for PRL-1 and PRL-2. On a Tecan safire2 (Tecan, Salzburg, Austria) plate reader dephosphorylation of the substrate to its fluorescent product was monitored by following the emission at 358 nm with excitation at 452 nm for 20 minutes. All measurements were done in triplicates, and the experiments were repeated at least three times. The slopes of the initial phases were obtained by linear regression of the data points. The normalized reaction rates were plotted versus the log of the inhibitor concentrations and the IC50 values were obtained by fitting the curves using the one site competition model of GraphPad Prism (GraphPad Software, Version 5). KM values were determined by measuring reaction kinetics of substrate dilution series. Initial velocities were plotted against DiFMUP concentration and the data was analyzed by Michaelis-Menten kinetics curve fitting of GraphPad Prism. A final DMSO content of 0.4% was maintained for the monomeric catechins. Due to the high water solubility of the procyanidins DMSO was not required and measurements were done in assay buffer only.

[1] = test system: HEK293 empty vector control cell line; assay: Wound healing assay; format: cell-based; conditions: 7 h, empty vector cells
Experimental: (§1) To study if procyanidin C2 is able to inhibit PRL-1 and PRL-3 in cells, HEK293 cells were treated in a wound-healing assay (see the experimental procedures). […] As a control the empty vector cell line was again utilized. […] The migration speed was for all cell lines similar when treated with 50 μM of 9. To further corroborate these findings we performed additionally a transwell assay as an alternative way to study cell migration.
(§2) Fig 6 Wound healing abilities of PRL-1 or PRL-3 overexpressing or empty vector control HEK293 cell lines were analyzed in the presence of compound 9 or medium only. Cells were seeded at a concentration of 800,000 cells per insert and procyanidin C2 (9) was added at a concentration of 25 and 50 μM. A) Pictures of the wound gaps were taken at 0 h and 7 h for both conditions (with and without treatment). B) Quantification of the wound healing experiment. Speed of migration is shown for combined data from different replicates, as mean ± SD (n = 38–88). Two-sided t-tests with Welsh correction were performed for p < 0.05. ns = not significant;***: < 0.001; **: < 0.01; *: < 0.05. C) Effect of polyphenolic compounds in a transwell assay on the cell migration of HEK293 empty vector and PRL-3 overexpressing cell lines. Cells were seeded at a concentration of 100,000 cells per insert and procyanidin C2 (9) was added at a final concentration of 25 and 50 μM. Migration was allowed for 16 h before harvesting and staining with calcein AM for fluorescent readout. Mean ± SD (n = 60–72) is shown for combined data from different replicates. Two-sided t-tests with Welsh correction were performed for p < 0.05. ns = not significant. D) Quantification of wound healing experiment including blocking PRL-1 and PRL-3 with analog 3. Speed of migration is shown for combined data from different replicates, as mean ± SD (n = 63–82). Two-sided t-tests with Welsh correction were performed for p < 0.05.
(§3) Wound healing experiments were carried out with μ-dish 35mm culture inserts. 8 × 10^5 cells/mL of the respective HEK293 stable cell lines were seeded into each of the two insert wells and allowed to settle for 40 h in the presence of tetracycline. Then the inserts were gently removed and growth medium supplemented with 7.5% FBS and 0.1% tetracycline was added as well as procyanidin C2 (9) or procyanidin B3 (8) at a final concentration of 25, 50 or 75 μM. For the experiment including blocking of PRLs with analog 3, the latter one was added at a final concentration of 35 μM, followed by addition of procyanidin C2 (9) at either 25 or 50 μM final concentration. Negative controls contained growth medium with FBS only. Pictures of the wound gap were taken at 0 h and 7 h time points. A Zeiss Cellobserver HS microscope was used with 10 × magnitude. For data analysis, in each experiment, the distances between both cell fronts at time point 0 h and 7 h were measured by taking 20 different measuring points. Then all the measurements from different replicates (4) for each experiment were combined and analyzed by t-test using Welsh correction in GraphPad Prism. Data are shown with 99% confidence intervals.

[2] = test system: PRL-1 overexpressing HEK293 cells; assay: Wound healing assay; format: cell-based; conditions: for cell migration, wound healing: 7 h, PRL-1 overexpressing cells
Experimental: as §1, §2, §3

[3] = test system: PRL-3 overexpressing HEK293 cells; assay: Wound healing assay; format: cell-based; conditions: for cell migration, wound healing: 7 h, PRL-3 overexpressing cells
Experimental: as §1, §2, §3

SMILES | IC50 (PRL-1) | fold higher activity toward PRL-1 compared to PRL-3 (PRL-1; in vitro, from IC50 values) | cell migration, wound healing ([1]; 50 μM) | cell migration, wound healing ([1]; 75 μM) | cell migration, wound healing ([2]; 50 μM) | cell migration, wound healing ([2]; 75 μM) | cell migration, wound healing ([3]; 50 μM) | cell migration, wound healing ([3]; 75 μM) | cell migration, wound healing ([1]; 25 μM) | migration, wound healing, PRLs blocked with analog 3 ([2]; 25 μM of 9 plus 35 μM analog 3, PRL-1 overexpressing cells) | cell migration, wound healing ([2]; 25 μM) | migration speed, wound healing, PRLs blocked with analog 3 ([2]; 50 μM of 9 plus 35 μM analog 3, PRL-1 overexpressing cells) | migration, wound healing, PRLs blocked with analog 3 ([3]; 25 μM of 9 plus 35 μM analog 3, PRL-3 overexpressing cells) | cell migration, wound healing ([3]; 25 μM) | migration speed, wound healing, PRLs blocked with analog 3 ([3]; 50 μM of 9 plus 35 μM analog 3, PRL-3 overexpressing cells)
Oc1cc(O)c2c(c1)O[C@H](c1ccc(O)c(O)c1)[C@@H](O)[C@@H]2c1c(O)cc(O)c2c1O[C@H](c1ccc(O)c(O)c1)[C@@H](O)C2 [Procyanidin B3 (8), Procyanidin B3] | 3300 ± 1200 nM | 38 fold | did not significantly increase migration behavior | did not significantly increase the migration speed | significantly decreased the number of migrating cells | further decreased migration | did not significantly increase migration behavior | did not significantly increase the migration speed |  |  |  |  |  |  | 
Oc1cc(O)c2c(c1)O[C@H](c1ccc(O)c(O)c1)[C@@H](O)[C@@H]2c1c(O)cc(O)c2c1O[C@H](c1ccc(O)c(O)c1)[C@@H](O)[C@@H]2c1c(O)cc(O)c2c1O[C@H](c1ccc(O)c(O)c1)[C@@H](O)C2 [Procyanidin C2 (9), Procyanidin C2] | 1800 ± 1100 nM |  | significantly increased the number of migrating cells |  | did not change any further compared to 25 μM |  | significant decrease in cell migration |  | slightly increased migration behavior | not fully restored to the same level as the empty vector cell line | slight drop in cell migration | exactly the same as for the empty vector cell line | the same as for the empty vector cell line | did not decrease significantly | exactly the same as for the empty vector cell line

From paper PMC4520450, “Procyanidins Negatively Affect the Activity of the Phosphatases of Regenerating Liver” (PLoS ONE, 2015)
